Data published in PubChem BioAssay (NCI).
Values joined by “and” are separate entries in the source; they are usually repeats but may differ in a detail not shown here. Equal values may be shown once.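 Step 1: Grow cells in 96-well plates. Step 2: Expose to compound for 48 hours at 5 concentrations. Step 3: Interpolate endpoints linearly; if unreached, use highest concentration. At the GI50, growth is halved. TGI marks complete inhibition of growth.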

Legend:
Test in all cases: growth of human tumour cells (NCI), 48 h
DMS 273 small cell lung = test system: DMS 273 small cell lung
XF 498 CNS = test system: XF 498 CNS
SK-MEL-2 melanoma = test system: SK-MEL-2 melanoma
KM12 colon = test system: KM12 colon
SNB-78 CNS = test system: SNB-78 CNS
NCI-H226 lung = test system: NCI-H226 lung
UACC-257 melanoma = test system: UACC-257 melanoma
SK-OV-3 ovarian = test system: SK-OV-3 ovarian
HS 578T breast = test system: HS 578T breast
DU-145 prostate = test system: DU-145 prostate
NCI/ADR-RES ovarian = test system: NCI/ADR-RES ovarian

O=c1cc(-c2ccccc2)oc2cc(O)cc(O)c12
TGI (DMS 273 small cell lung): 34 µM
TGI (XF 498 CNS): 44.1 µM
TGI (SK-MEL-2 melanoma): 39.6 µM
TGI (KM12 colon): 39.6 µM
TGI (SNB-78 CNS): 92.5 µM
TGI (NCI-H226 lung): 58.1 µM
TGI (UACC-257 melanoma): 62.3 µM
TGI (SK-OV-3 ovarian): 67 µM

CN(CCc1ccccn1)c1nc(=[N+](C)C)ss1
TGI (DMS 273 small cell lung): > 100 µM
TGI (XF 498 CNS): > 100 µM
TGI (SK-MEL-2 melanoma): > 100 µM
TGI (KM12 colon): > 100 µM
TGI (SNB-78 CNS): > 100 µM
TGI (UACC-257 melanoma): > 100 µM
TGI (SK-OV-3 ovarian): > 100 µM

CC(C)C1CC2C(=O)N(c3ccccc3)C(=O)C2c2[nH]c3ccccc3c21 (configuration not stated)
TGI (DMS 273 small cell lung): 29.2 µM
TGI (XF 498 CNS): 54.9 µM
TGI (SK-MEL-2 melanoma): > 100 µM
TGI (KM12 colon): > 100 µM
TGI (SNB-78 CNS): 77.3 µM
TGI (NCI-H226 lung): 36.8 µM
TGI (UACC-257 melanoma): > 100 µM
TGI (SK-OV-3 ovarian): 79.4 µM

O=C(c1ccccc1)c1oc2ccc(Br)cc2c1-c1cnn(-c2ccccc2)c1
TGI (DMS 273 small cell lung): > 100 µM
TGI (XF 498 CNS): > 100 µM
TGI (SK-MEL-2 melanoma): > 100 µM
TGI (KM12 colon): > 100 µM
TGI (SNB-78 CNS): > 100 µM
TGI (UACC-257 melanoma): > 100 µM
TGI (SK-OV-3 ovarian): > 100 µM

CN(C)CCSc1cccc(-c2cc(-c3cccc(SCCN(C)C)c3)nc(SCCN(C)C)n2)c1
TGI (SK-MEL-2 melanoma): 21.1 µM
TGI (KM12 colon): 3.44 µM
TGI (SNB-78 CNS): 6.25 µM
TGI (UACC-257 melanoma): 3.02 µM
TGI (SK-OV-3 ovarian): 45.5 µM

O=C(Cc1nc2ccccc2s1)C(=O)Nc1cccc(Cl)c1
TGI (DMS 273 small cell lung): > 100 µM
TGI (XF 498 CNS): > 100 µM
TGI (SK-MEL-2 melanoma): > 100 µM
TGI (KM12 colon): > 100 µM
TGI (SNB-78 CNS): > 100 µM
TGI (NCI-H226 lung): > 100 µM
TGI (UACC-257 melanoma): > 100 µM
TGI (SK-OV-3 ovarian): > 100 µM

O=S(=O)(SCc1ccccc1)C(c1ccccc1)c1ccccc1
TGI (DMS 273 small cell lung): > 100 µM
TGI (XF 498 CNS): > 100 µM
TGI (SK-MEL-2 melanoma): > 100 µM
TGI (KM12 colon): > 100 µM
TGI (SNB-78 CNS): 75.7 µM
TGI (NCI-H226 lung): 54.5 µM
TGI (UACC-257 melanoma): > 100 µM
TGI (SK-OV-3 ovarian): > 100 µM

CN(/N=C/c1cccc2cccnc12)c1ccc([N+](=O)[O-])cc1
TGI (DMS 273 small cell lung): > 100 µM
TGI (XF 498 CNS): > 100 µM
TGI (SK-MEL-2 melanoma): > 100 µM
TGI (KM12 colon): > 100 µM
TGI (SNB-78 CNS): > 100 µM
TGI (NCI-H226 lung): > 100 µM
TGI (UACC-257 melanoma): > 100 µM
TGI (SK-OV-3 ovarian): > 100 µM

CC1=C(C(=O)NCc2ccccc2)C(c2ccc([N+](=O)[O-])cc2)C(C(=O)NCc2ccccc2)=C(C)N1
TGI (DMS 273 small cell lung): > 100 µM
TGI (XF 498 CNS): > 100 µM
TGI (SK-MEL-2 melanoma): > 100 µM
TGI (KM12 colon): > 100 µM
TGI (SNB-78 CNS): > 100 µM
TGI (NCI-H226 lung): > 100 µM
TGI (UACC-257 melanoma): > 100 µM

COc1ccc(C[C@@H]2NC[C@@H](O)[C@@H]2OC(C)=O)cc1
TGI (DMS 273 small cell lung): > 100 µM
TGI (SK-MEL-2 melanoma): 0.3 µM
TGI (HS 578T breast): 0.169 µM
GI50 (KM12 colon): 3.53 µM
GI50 (NCI-H226 lung): 5.27 µM
TGI (DU-145 prostate): 0.0947 µM
GI50 (UACC-257 melanoma): 2.33 µM

Cc1ccc(C2NC(=O)c3ccccc3N2)s1 (configuration not stated)
TGI (DMS 273 small cell lung): > 100 µM
TGI (XF 498 CNS): 19 µM
TGI (SK-MEL-2 melanoma): 42 µM
TGI (KM12 colon): > 100 µM
TGI (SNB-78 CNS): > 100 µM
TGI (SK-OV-3 ovarian): 91.6 µM

CC1=C(C(=O)Nc2cc(=O)n(C)c(=O)n2C)C(c2ccc([N+](=O)[O-])cc2)C(C(=O)Nc2cc(=O)n(C)c(=O)n2C)=C(C)N1
TGI (XF 498 CNS): > 100 µM
TGI (SK-MEL-2 melanoma): > 100 µM
TGI (KM12 colon): > 100 µM
TGI (SNB-78 CNS): > 100 µM
TGI (NCI-H226 lung): > 100 µM
TGI (UACC-257 melanoma): > 100 µM
TGI (SK-OV-3 ovarian): > 100 µM

O=[N+]([O-])/C=C/c1cc2ccccc2[nH]1
TGI (SK-MEL-2 melanoma): 34.6 µM
TGI (HS 578T breast): 50 µM
TGI (KM12 colon): 25 µM
TGI (NCI-H226 lung): 37.7 µM
TGI (DU-145 prostate): 28.8 µM
TGI (UACC-257 melanoma): 29.6 µM
TGI (NCI/ADR-RES ovarian): 98.2 µM
TGI (SK-OV-3 ovarian): 32.8 µM

CN1CCN(c2ccc(Nc3nc(N)c(C(=O)c4ccc5c(c4)OCCO5)s3)cc2)CC1
GI50 (SK-MEL-2 melanoma): 4.77 µM
TGI (SK-MEL-2 melanoma): 15.2 µM
GI50 (HS 578T breast): 2.32 µM
TGI (HS 578T breast): 12.2 µM
GI50 (KM12 colon): 4.06 µM
TGI (KM12 colon): 16.1 µM
GI50 (NCI-H226 lung): 2.71 µM
TGI (NCI-H226 lung): 11.8 µM
GI50 (DU-145 prostate): 4.34 µM
TGI (DU-145 prostate): 16.5 µM
GI50 (UACC-257 melanoma): 3.97 µM
TGI (UACC-257 melanoma): 12.6 µM
GI50 (NCI/ADR-RES ovarian): 7.54 µM
TGI (NCI/ADR-RES ovarian): > 25 µM
GI50 (SK-OV-3 ovarian): 4.36 µM
TGI (SK-OV-3 ovarian): 10.6 µM

Nc1ncnc2c1c(-c1cccc(OCc3ccccc3)c1)cn2C1CC(CN2CCC2)C1 (configuration not stated)
GI50 (SK-MEL-2 melanoma): 1.58 µM and 2.21 µM
TGI (SK-MEL-2 melanoma): 3.36 µM and 6.1 µM
GI50 (HS 578T breast): 2.97 µM and 1.57 µM
TGI (HS 578T breast): 24.8 µM and 5.8 µM
GI50 (KM12 colon): 2.72 µM and 3.07 µM
TGI (KM12 colon): 8.97 µM and > 10 µM
GI50 (NCI-H226 lung): 2.03 µM and 2.71 µM
TGI (NCI-H226 lung): 16 µM and > 10 µM
GI50 (DU-145 prostate): 4.61 µM and 7.63 µM
TGI (DU-145 prostate): 17.7 µM and > 10 µM
GI50 (UACC-257 melanoma): 0.559 µM and 1.13 µM
TGI (UACC-257 melanoma): 2.1 µM and 2.41 µM
GI50 (NCI/ADR-RES ovarian): 6.47 µM and 8.96 µM
TGI (NCI/ADR-RES ovarian): 22.6 µM and > 10 µM
GI50 (SK-OV-3 ovarian): 3.99 µM
TGI (SK-OV-3 ovarian): 11.3 µM and > 10 µM

Cc1cc(Nc2c3ccccc3nc3ccccc23)ccc1NS(C)(=O)=O
GI50 (SK-MEL-2 melanoma): 3.42 µM
TGI (SK-MEL-2 melanoma): 10.6 µM
GI50 (HS 578T breast): 2.45 µM
TGI (HS 578T breast): 11.7 µM
GI50 (KM12 colon): 4.2 µM
TGI (KM12 colon): 16.2 µM
GI50 (NCI-H226 lung): 4.41 µM
TGI (NCI-H226 lung): 22 µM
GI50 (DU-145 prostate): 4.87 µM
TGI (DU-145 prostate): 19.9 µM
GI50 (UACC-257 melanoma): 2.41 µM
TGI (UACC-257 melanoma): 9.58 µM
GI50 (NCI/ADR-RES ovarian): 5.63 µM
TGI (NCI/ADR-RES ovarian): 52.5 µM
GI50 (SK-OV-3 ovarian): 6.28 µM
TGI (SK-OV-3 ovarian): 20.1 µM
